The numbers were not newly measured in patent US20090306081A1, “Solid Dosage Formulations of Hydralazine Compounds and Nitric Oxide Donor Compounds” (priority 2006, published 2009), which cites them from elsewhere.

Take `O=[N+]([O-])O[C@H]1CO[C@H]2[C@@H]1OC[C@H]2O[N+](=O)[O-]` [Diluted isosorbide dinitrate, 1,4,3,6-dianhydro-D-glucitol-2,5-dinitrate]: the “solubility in organic solvents” value (organic solvents such as ethanol, ether and chloroform) is listed as “freely soluble”. Besides, the solubility in water result (water) is recorded as “sparingly soluble”.
